Assays:
Format in all cases: physicochemical
[1] = Evaluation of hue and vividness of a recorded image on glossy paper (colorimetry, GRETAG SPM50); conditions: for Vividness C*: C*=((a*)^2+(b*)^2)^1/2, glossy paper PR-101; for Vividness C* (3-level evaluation): glossy paper PR-101; for Brilliance L* / Hue a* / Hue b*: inkjet print of Table 3 ink (3.0 parts compound) on glossy paper Professional Photopaper PR-101
Protocol: (§1) A liquid of a composition shown in the following Table 3 is prepared using a compound (Compound No. 1) obtained in (2) of the above Example 1, followed by filtration with a 0.45 μm membrane filter to obtain each water-based ink composition for inkjet recording. Ion exchange water was used as water. In addition, water and ammonia water were added thereto to adjust the pH of the ink composition to 7 to 10 and a total amount of the ink composition to 100 parts. The test using the compound obtained in (2) of Example 1 is Example 7. Similarly the tests using the compounds obtained in Examples 2 to 6 are Examples 8 to 12 respectively.
(§2) Using an inkjet printer (Pixus 860i from Canon Inc.), inkjet recording was conducted on glossy paper having an ink-receiving layer containing a porous white inorganic substance (Professional Photopaper PR-101 from Canon Inc.). In inkjet recording, an image pattern was made so as to obtain gradations of several stages in printing density, and a print was made.
Hue and vividness in a recorded image : recorded paper was measured using a colorimetric system (GRETAG SPM50 from GRETAG Co., Ltd.), values of L*, a* and b* were calculated, and for vividness, C*=((a*)^2+(b*)^2)^1/2 was calculated from color level (a* and b*) where color level a* of each recording paper is similar. And vividness was evaluated on the following 3 levels judging from the measured results and the results are shown jointly in Table 4. • 90≦C* . . . ∘ • 80≦C*<90 . . . Δ

[2] = Ozone gas fastness test of a recorded image; conditions: ozone 40 ppm, 60% RH, 24° C., 3 hours, glossy paper
Protocol: A liquid of a composition shown in the following Table 3 is prepared using a compound (Compound No. 1) obtained in (2) of the above Example 1, followed by filtration with a 0.45 μm membrane filter to obtain each water-based ink composition for inkjet recording. Ion exchange water was used as water. In addition, water and ammonia water were added thereto to adjust the pH of the ink composition to 7 to 10 and a total amount of the ink composition to 100 parts. The test using the compound obtained in (2) of Example 1 is Example 7. Similarly the tests using the compounds obtained in Examples 2 to 6 are Examples 8 to 12 respectively. Using an inkjet printer (Pixus 860i from Canon Inc.), inkjet recording was conducted on glossy paper having an ink-receiving layer containing a porous white inorganic substance (Professional Photopaper PR-101 from Canon Inc.). In inkjet recording, an image pattern was made so as to obtain gradations of several stages in printing density, and a print was made. Using an ozone weatherometer (from Suga Testing Machine Co., Ltd.), a piece of testing paper printed on glossy paper from Canon, Inc. was left for 3 hours under conditions of ozone concentration of 40 ppm, humidity of 60% RH and temperature of 24° C., and color difference (ΔE) before and after the test was measured and evaluated on 3 levels. • ΔE≦20 . . . ∘ • 20<ΔE≦40 . . . Δ • 40<ΔE . . . x

[3] = Xenon light fastness test of a recorded image; conditions: xenon weatherometer Ci4000, 50 hours, 0.36 W/m^2, 2 mm glass plate and air layer, printed glossy paper and plain paper
Protocol: as §1, §2
Using a xenon weatherometer Ci4000 (from ATLAS Co., Ltd.), pieces of testing paper of printed glossy paper and plain paper from Canon, Inc., on which a glass plate having a thickness of 2 mm and an air layer were set up, were irradiated for 50 hours at illuminance of 0.36 W/m^2, and color difference (ΔE) before and after the test was measured and evaluated on 3 levels. • ΔE≦10 . . . ∘ • 10<ΔE≦20 . . . Δ • 20<ΔE . . . x The results are shown in Table 5. (E) Ozone Gas Fastness Test of a Recorded Image

Row | Structure (SMILES) | Vividness C* [1] | Vividness C* (3-level evaluation) [1] | Brilliance L* [1] | Hue a* [1] | Hue b* [1] | Ozone fastness (color difference ΔE before and after the test, 3 levels) [2] | Light fastness (color difference ΔE before and after the test, 3 levels) [3]
1 | Cc1c(C#N)c(NCCS(=O)(=O)O)nc(NCCS(=O)(=O)O)c1N=Nc1nc2ccccc2s1 [Compound No. 1] | 109.7 | ∘ (90≦C*) | 66.8 | 53.7 | 96.1 | ∘ (ΔE≦20) | ∘ (ΔE≦10)
2 | Cc1c(C#N)c(NCCS(=O)(=O)O)nc(NCCS(=O)(=O)O)c1N=Nc1nc2ccc(S(=O)(=O)O)cc2s1 [Compound No. 2] | 101.9 | ∘ (90≦C*) | 68.3 | 53.5 | 86.8 | ∘ (ΔE≦20) | ∘ (ΔE≦10)
3 | Cc1c(C#N)c(NCCS(=O)(=O)O)nc(NCCS(=O)(=O)O)c1N=Nc1nc2ccc(S(C)(=O)=O)cc2s1 [Compound No. 3] | – | – | – | – | – | ∘ (ΔE≦20) | ∘ (ΔE≦10)
4 | COc1ccc2nc(N=Nc3c(NCCS(=O)(=O)O)nc(NCCS(=O)(=O)O)c(C#N)c3C)sc2c1 [Compound No. 4] | – | – | – | – | – | ∘ (ΔE≦20) | ∘ (ΔE≦10)
5 | Cc1c(C#N)c(NCCS(=O)(=O)O)nc(NCCS(=O)(=O)O)c1N=Nc1nc2ccc(C(=O)O)cc2s1 [Compound No. 5] | – | – | – | – | – | ∘ (ΔE≦20) | ∘ (ΔE≦10)
6 | Cc1c(C#N)c(NCCS(=O)(=O)O)nc(NCCS(=O)(=O)O)c1/N=N/c1snc2ccc(S(=O)(=O)O)cc12 [Compound No. 8] | – | – | – | – | – | ∘ (ΔE≦20) | ∘ (ΔE≦10)

From patent US20080011191A1, “Novel Azo Compound or Salt, Ink Composition Comprising Such Azo Compound, and Colored Article” (priority 2004, published 2008)
